Reference: US9045401B2, “Methods for treating or ameliorating a melanoma and killing melanoma cells” (THE REGENTS OF THE UNIVERSITY OF CALIFORNIA, priority 2007, dated 2015)
Entries after “also recorded” stand apart in the source; their conditions may differ.

Tests used:
[1] = system: NB7-C8 neuroblastoma tumor cells; assay: neuroblastoma tumor growth on chick chorioallantoic membrane; assay type: in vivo; conditions: 100 picomoles ScA topically after 72 hours, harvested day 8; p<0.002; listed as ScA
Experimental: FIG. 31(A-F): Transgenic Tg(fli1:EGFP) zebrafish embryos in which GFP is expressed in endothelial cells were incubated without (A) or with increasing concentrations of ScA: 80 nM in FIG. 31(B), 160 nM in FIG. 31(C), 300 nM in FIG. 31(D) 1.6 μM in FIG. 31(E) or 3 μM in FIG. 31(F), and blood vessel morphology recorded by fluorescence microscopy. FIG. 31(G) Filter disks impregnated with 100 ng of bFGF were placed on the chorioallantoic membrane of eleven day old chicks to induce angiogenesis in the absence or presence of ScA, as shown. After 72 hours (h), disks were removed and the vascularity of the underlying chorioallantoic membrane determined by direct counting of branch points using a dissecting microscope. FIG. 31(H): NB7 neuroblastoma cells lacking caspase 8 (filled bar) or NB7-C8 cells reconstituted for caspase 8 expression (open bars) were seeded into ten day old chick chorioallantoic membranes to form tumors. After 72 hours, ScA was added topically to each growing tumor mass. Tumors were harvested and resected on day 8, and mass (wet weight) determined. Data shown is the mean±SD (N=8-12).
Tumors were then treated topically with 100 picomoles of ScA, and allowed to grow a further five days before being harvested.
Chick Chorioallantoic membrane studies. The CAM studies were performed using 10 day old chick embryos as we've previously described (36). […]

[2] = chemical stability; assay type: physicochemical

C=CC/C=C/N(C)C(=O)CCCCCCCC/C=C/[C@H](CSSC[C@@H](/C=C/CCCCCCCCC(=O)N(C)/C=C/CC=C)NC(C)=O)NC(C)=O [somocystinamide A, Somocystinamide A]
tumor growth / tumor mass (wet weight) [1]: significantly decreased; also recorded: inhibition of tumor growth selectively in the caspase 8-expressing tumor cells
storage stability ([2]; apart from hydrolytic degradation of the unsaturated amide): otherwise quite stable
acid sensitivity ([2]; converts to compound 2): highly acid-sensitive
